The test system of data set [1] is Enterobacter cloacae. Kind of data set: Inhibition of IMP4 in Enterobacter cloacae isolate 16 assessed as potentiation of meropenem-induced antibacterial activity by measuring meropenem MIC after 24 hrs by broth microdilution method (reference value: 64 ug/ml).
For data set [2], the system named is Escherichia coli. The data set is described as follows: Inhibition of IMP4 in Escherichia coli isolate 11 assessed as potentiation of meropenem-induced antibacterial activity by measuring meropenem MIC after 24 hrs by broth microdilution method (reference value: 32 ug/ml). (Dilution methods test growth across graded concentrations, often in twofold steps.)
Data set [3] concerns Klebsiella pneumoniae. Kind of data set: Inhibition of IMP4 in Klebsiella pneumoniae isolate 10 assessed as potentiation of meropenem-induced antibacterial activity by measuring meropenem MIC after 24 hrs by broth microdilution method (reference value: 64 ug/ml).
Data set [4] concerns Escherichia coli. Kind of data set: Inhibition of NDM-7 in Escherichia coli isolate 2 assessed as potentiation of meropenem-induced antibacterial activity by measuring meropenem MIC after 24 hrs by broth microdilution assay (reference value: 640 ug/ml).
For data set [5], the system named is Escherichia coli. Kind of data set: Effect on growth of Escherichia coli isolate 3 after 24 hrs by broth microdilution assay. The format is organism-based.
Data set [6] has as its system Klebsiella pneumoniae. Kind of data set: Inhibition of IMP4 in Klebsiella pneumoniae isolate 17 assessed as potentiation of meropenem-induced antibacterial activity by measuring meropenem MIC after 24 hrs by broth microdilution method (reference value: 32 ug/ml).
In data set [7] the test system is Enterobacter cloacae. The data set is described as follows: Effect on growth of Enterobacter cloacae isolate 4 after 24 hrs by broth microdilution assay. The format is organism-based.
Data set [8] deals with Enterobacter cloacae. The data set is described as follows: Effect on growth of Enterobacter cloacae isolate 5 after 24 hrs by broth microdilution assay. The format is organism-based.
Data set [9] concerns Escherichia coli. The data set is described as follows: Effect on growth of Escherichia coli isolate 11 after 24 hrs by broth microdilution method. The class given is organism-based.
Data set [10] concerns Escherichia coli. The data set is described as follows: Inhibition of NDM1 in Escherichia coli isolate 8 assessed as potentiation of meropenem-induced antibacterial activity by measuring meropenem MIC after 24 hrs by broth microdilution assay (reference value: 320 ug/ml).
Data set [11] deals with Escherichia coli. The data set is described as follows: Effect on growth of Escherichia coli isolate 8 after 24 hrs by broth microdilution assay. The class given is organism-based.
In data set [12] the test system is Klebsiella pneumoniae. The data set is described as follows: Effect on growth of Klebsiella pneumoniae isolate 10 after 24 hrs by broth microdilution method. The class given is organism-based.
Data set [13] has as its system Enterobacter cloacae. The data set is described as follows: Effect on growth of Enterobacter cloacae isolate 6 after 24 hrs by broth microdilution assay. The format is organism-based.
Data set [14] deals with Proteus mirabilis. The data set is described as follows: Effect on growth of Proteus mirabilis isolate 19 after 24 hrs by broth microdilution method. The format is organism-based.
The test system of data set [15] is Enterobacter cloacae. Kind of data set: Effect on growth of Enterobacter cloacae isolate 16 after 24 hrs by broth microdilution method. The format is organism-based.
Data set [16] relates to Escherichia coli. The data set is described as follows: Effect on growth of Escherichia coli isolate 2 after 24 hrs by broth microdilution assay. The class given is organism-based.
The subject of data set [17] is Escherichia coli. Kind of data set: Effect on growth of Escherichia coli isolate 14 after 24 hrs by broth microdilution method. The class given is organism-based.
Data set [18] has as its target T1, Metallo-beta-lactamase NDM-4 (Escherichia coli) (UniProt H6WZS9).
T1 sequence (whole entry): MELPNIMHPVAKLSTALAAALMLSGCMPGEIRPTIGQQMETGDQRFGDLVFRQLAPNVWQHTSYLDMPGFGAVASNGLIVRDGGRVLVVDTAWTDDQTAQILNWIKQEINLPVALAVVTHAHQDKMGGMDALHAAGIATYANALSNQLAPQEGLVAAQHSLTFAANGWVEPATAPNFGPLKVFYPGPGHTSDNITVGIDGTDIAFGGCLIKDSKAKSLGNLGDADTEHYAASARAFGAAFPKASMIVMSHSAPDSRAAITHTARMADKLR
Kind of data set: Inhibition of Escherichia coli NDM4 assessed as potentiation of meropenem-induced antibacterial activity by measuring reduction in bacterial growth at 64 ug/mL after 24 hrs by broth microdilution method relative to control.

In data set [19] the test system is Escherichia coli. Kind of data set: Effect on growth of Escherichia coli isolate 9 after 24 hrs by broth microdilution assay. The format is organism-based.
Data set [20] deals with Escherichia coli. The data set is described as follows: Effect on growth of Escherichia coli isolate 1 after 24 hrs by broth microdilution assay. The class given is organism-based.
Data set [21] has as its system Escherichia coli. Kind of data set: Inhibition of NDM1 in Escherichia coli isolate 1 assessed as potentiation of meropenem-induced antibacterial activity by measuring meropenem MIC after 24 hrs by broth microdilution assay (reference value: 1280 ug/ml).
In data set [22] the target is T1, Metallo-beta-lactamase NDM-4 (Escherichia coli). Kind of data set: Inhibition of NDM4 in Escherichia coli isolate 3 assessed as potentiation of meropenem-induced antibacterial activity by measuring meropenem MIC after 24 hrs by broth microdilution assay (reference value: 1280 ug/ml).
The subject of data set [23] is Enterobacter cloacae. Kind of data set: Effect on growth of Enterobacter cloacae isolate 15 after 24 hrs by broth microdilution method. The class given is organism-based.
Data set [24] concerns Klebsiella pneumoniae. Kind of data set: Effect on growth of Klebsiella pneumoniae isolate 12 after 24 hrs by broth microdilution method. The format is organism-based.
The subject of data set [25] is Escherichia coli. The data set is described as follows: Effect on growth of Escherichia coli isolate 18 after 24 hrs by broth microdilution method. The format is organism-based.
Data set [26] concerns Enterobacter cloacae. The data set is described as follows: Inhibition of IMP4 in Enterobacter cloacae isolate 15 assessed as potentiation of meropenem-induced antibacterial activity by measuring meropenem MIC after 24 hrs by broth microdilution method (reference value: 32 ug/ml).
For data set [27], the target named is T1, Metallo-beta-lactamase NDM-4 (Escherichia coli). Kind of data set: Inhibition of NDM4 in Escherichia coli isolate 3 assessed as potentiation of meropenem-induced bactericidal activity at 4 times MIC incubated for 24 hrs followed by replating on agar plates for 16 to 18 hrs and measured up to 24 hrs by time kill assay.
For data set [28], the system named is Enterobacter cloacae. Kind of data set: Inhibition of NDM1 in Enterobacter cloacae isolate 5 assessed as potentiation of meropenem-induced antibacterial activity by measuring meropenem MIC after 24 hrs by broth microdilution assay (reference value: 640 ug/ml).
Data set [29] has as its system Klebsiella pneumoniae. Kind of data set: Effect on growth of Klebsiella pneumoniae isolate 17 after 24 hrs by broth microdilution method. The class given is organism-based.
Data set [30] concerns Klebsiella pneumoniae. The data set is described as follows: Effect on growth of Klebsiella pneumoniae isolate 13 after 24 hrs by broth microdilution method. The class given is organism-based.
The subject of data set [31] is Enterobacter cloacae. The data set is described as follows: Inhibition of NDM1 in Enterobacter cloacae isolate 6 assessed as potentiation of meropenem-induced antibacterial activity by measuring meropenem MIC after 24 hrs by broth microdilution assay (reference value: 320 ug/ml).
Data set [32] has as its system Citrobacter freundii. The data set is described as follows: Effect on growth of Citrobacter freundii isolate 7 after 24 hrs by broth microdilution assay. The class given is organism-based.
In data set [33] the test system is Klebsiella pneumoniae. Kind of data set: Inhibition of IMP4 in Klebsiella pneumoniae isolate 13 assessed as potentiation of meropenem-induced antibacterial activity by measuring meropenem MIC after 24 hrs by broth microdilution method (reference value: 320 ug/ml).
In data set [34] the test system is Enterobacter cloacae. The data set is described as follows: Inhibition of NDM1 in Enterobacter cloacae isolate 4 assessed as potentiation of meropenem-induced antibacterial activity by measuring meropenem MIC after 24 hrs by broth microdilution assay (reference value: 640 ug/ml).
For data set [35], the system named is Klebsiella pneumoniae. The data set is described as follows: Inhibition of IMP4 in Klebsiella pneumoniae isolate 12 assessed as potentiation of meropenem-induced antibacterial activity by measuring meropenem MIC after 24 hrs by broth microdilution method (reference value: 16 ug/ml).
For data set [36], the system named is Escherichia coli. The data set is described as follows: Inhibition of IMP4 in Escherichia coli isolate 18 assessed as potentiation of meropenem-induced antibacterial activity by measuring meropenem MIC after 24 hrs by broth microdilution method (reference value: 16 ug/ml).
The target of data set [37] is T1, Metallo-beta-lactamase NDM-4 (Escherichia coli). Kind of data set: Inhibition of Escherichia coli NDM4 assessed as potentiation of meropenem-induced antibacterial activity by measuring bacterial growth rate at 64 ug/mL after 24 hrs in presence of ZnCl2 by broth microdilution method relative to control.
In data set [38] the test system is Proteus mirabilis. The data set is described as follows: Inhibition of IMP4 in Proteus mirabilis isolate 19 assessed as potentiation of meropenem-induced antibacterial activity by measuring meropenem MIC after 24 hrs by broth microdilution method (reference value: 320 ug/ml).
For data set [39], the system named is Escherichia coli. Kind of data set: Inhibition of IMP4 in Escherichia coli isolate 14 assessed as potentiation of meropenem-induced antibacterial activity by measuring meropenem MIC after 24 hrs by broth microdilution method (reference value: 16 ug/ml).
Data set [40] concerns Escherichia coli. The data set is described as follows: Effect on growth of NDM4-positive Escherichia coli assessed as bacterial growth at 64 ug/mL after 24 hrs by broth microdilution method relative to control. The format is organism-based.
Data set [41] relates to Escherichia coli. The data set is described as follows: Effect on growth of NDM4-positive Escherichia coli assessed as bacterial growth at 0.03125 ug/mL after 24 hrs by broth microdilution method relative to control. The format is functional.
The target of data set [42] is T1, Metallo-beta-lactamase NDM-4 (Escherichia coli). Kind of data set: Inhibition of NDM4 in Escherichia coli ATCC 25922 assessed as potentiation of meropenem-induced antibacterial activity by measuring zone of inhibition by agar disk diffusion method.
Data set [43] relates to Escherichia coli ATCC 25922. Kind of data set: Inhibition of IMP-4 in Escherichia coli ATCC 25922 assessed as potentiation of meropenem-induced antibacterial activity by measuring zone of inhibition by agar disk diffusion method. For orientation: In agar diffusion tests the substance spreads into inoculated agar from a disc or well.
A short description of data set [44]: Inhibition of Stenotrophomonas maltophilia NDM1 expressed in Escherichia coli BL21 (DE3) expressing measured after 15 minutes at interval of 60 secs.

The results in this text go back to ChEMBL document CHEMBL4387701, “H2depda: An acyclic adjuvant potentiates meropenem activity in vitro against metallo-β-lactamase-producing enterobacterales” (Eur J Med Chem, 2019).

Structures are written as SMILES. pIC50: −log10 of the molar value. In brackets after ≈: the same amount, converted by molar mass. Activity calls are given as the source filed them. The rule behind the calls is not given here.

As usually defined, the inhibition is the drop in the measured response relative to a control, in per cent. As to `O=C(O)CN1CCN(CC(=O)O)CCN(CC(=O)O)CC1`, the MIC in data set [1] came to 2 µg/mL; in data set [2], 1 µg/mL; in data set [3] it was 4 µg/mL; in [4] it was 0.25 µg/mL; in data set [5], 16 µg/mL (≈ 52.8 µM); in data set [6] it was 4 µg/mL. Further, the MIC in data set [7] was determined as 16 µg/mL (≈ 52.8 µM); in data set [8] it was 16 µg/mL (≈ 52.8 µM); in data set [9], 16 µg/mL (≈ 52.8 µM); in data set [10] it was 0.125 µg/mL; in data set [11] it was 16 µg/mL (≈ 52.8 µM); in data set [12], 16 µg/mL (≈ 52.8 µM). Also, the MIC in [13], in [14], in data set [15], in [16], in data set [17] and in data set [19] was 16 µg/mL (≈ 52.8 µM) throughout. Also, the MIC in data set [20] turned out to be 16 µg/mL (≈ 52.8 µM); in data set [21], 0.0312 µg/mL; in data set [22], 0.25 µg/mL; in data set [23], 16 µg/mL (≈ 52.8 µM); in data set [24], 16 µg/mL (≈ 52.8 µM); in data set [25], 16 µg/mL (≈ 52.8 µM). Besides, the MIC amounted to 1 µg/mL in [26]; 0.25 µg/mL in data set [28]; 16 µg/mL (≈ 52.8 µM) in data set [29]; 16 µg/mL (≈ 52.8 µM) in data set [30]; 0.0312 µg/mL in data set [31]; 16 µg/mL (≈ 52.8 µM) in [32]. Besides, the MIC in [33] worked out at 4 µg/mL; in [34], 0.125 µg/mL; in data set [35] it was 1 µg/mL; in data set [36], 2 µg/mL; in data set [38] it was 4 µg/mL; in data set [39] it was 4 µg/mL. The inhibition entry in data set [18] and in data set [27] was “Active” throughout. Also, the inhibition in data set [37] was 81%. For the same compound, the Activity in [40] is given as 95%.

With `C[C@@H](O)[C@H]1C(=O)N2C(C(=O)O)=C(S[C@@H]3CN[C@H](C(=O)N(C)C)C3)[C@H](C)[C@H]12` [MEROPENEM], in data set [41], the Activity was determined as 95%.

As a reminder, the pIC50 is the IC50 on a negative log10 scale, so that one unit is a factor of ten. `O=C(O)CN(CCN(CC(=O)O)CC(=O)O)CC(=O)O` [EDETIC ACID]: the inhibition zone (IZ) in [42] came to 18.2 mm; in data set [43] it was 13.9 mm. The compound also gave a pIC50 in data set [44] of 5.07.
